Reference: patent US10308916B2, “Omega-transaminase mutants with activity improvements toward ketones and methods for producing optically pure amines” (Industry-Academic Cooperation Foundation, Yonsei University, priority 2015, dated 2019)
Where two headings read alike, the source gives them in different places.

Legend:
OATA WT [1] = format: biochemical
OATA WT [2] = format: biochemical, Ochrobactrum anthropi; details: pH 7
OATA WT [3] = format: biochemical; remark: listed apart in the source
CC(=O)C(=O)O = experiment: purified protein, by the assay type
OATA WT [4] = format: biochemical; remark: listed apart in the source
OATA WT [5] = format: biochemical, Ochrobactrum anthropi
OATA WT [6] = format: biochemical, Ochrobactrum anthropi; remark: listed apart in the source
OATA = OATA (Brucella anthropi, UniProt A6WVC6); format: biochemical
OATA W58L = format: biochemical; details: pH 7
OATA L57A/W58A = format: biochemical
OATA W58A [7] = format: biochemical; details: pH 7
OATA W58I = format: biochemical; details: pH 7
OATA L57A/W58A/V154A = format: biochemical
OATA W58V = format: biochemical; details: pH 7
OATA W58M = format: biochemical; details: pH 7
OATA W58A [8] = format: biochemical
OATA L57A = format: biochemical
OATA WT [9] = format: biochemical, Ochrobactrum anthropi; remark: listed apart in the source
[10] = test system: (S)-selective omega-transaminase from Ochrobactrum anthropi; details: cited from earlier work
ARTAmut = details: cited from earlier work

CCCC(=O)c1ccccc1 [Ketone 1c, butyrophenone]
Relative activity, OATA WT (OATA WT [1]): 2% | Relative activity to acetophenone, OATA WT (OATA WT [2]): 0%

CC(C)C(C)N (stereo not shown) [1,2-Dimethylpropylamine]
Relative reactivity, OATA (OATA WT [3]): 18%

C[C@H](N)c1cccc2ccccc12 [(S)-1-(1-naphthyl)ethylamine]
Relative reactivity, OATA (OATA WT [3]): 0.5%

(Brucella anthropi ATCC 49188)
Km (CC(=O)C(=O)O): 0.12, 2.1 mM | kcat (CC(=O)C(=O)O): 2600, 19000 | kcat/Km (CC(=O)C(=O)O): 22000, 9000

C[C@H](N)C1CC1 [(S)-1-Cyclopropylethylamine]
Relative reactivity, OATA (OATA WT [3]): 29%

CC(=O)c1ccc(C)cc1 [Ketone 1d, 4-methylacetophenone]
Conversion (%) OATA (OATA WT [4]): 7% | Relative activity to acetophenone, OATA WT (OATA WT [2]): 51%

CCCCCCC(=O)C(=O)O [2-oxooctanoic acid]
Relative activity, OATA WT (OATA WT [5]): 1%

cyclpropyl methyl ketone [Ketone 1o]
Relative activity to acetophenone, OATA WT (OATA WT [2]): 17%

CCCC[C@H](C)N [(S)-2-aminohexane]
Relative reactivity, OATA (OATA WT [3]): 31%

CC(=O)C(C)C [Ketone 1m, 3-methyl 2-butanone]
Relative activity to acetophenone, OATA WT (OATA WT [2]): 161%

CC(C)C(=O)C(=O)O [3-methyl-2-oxobutyric acid]
Relative activity, OATA WT (OATA WT [5]): did not react

CCCCCCC(C)=O [Ketone 1l, 2-octanone]
Conversion (%) OATA (OATA WT [4]): 30% | Relative activity to acetophenone, OATA WT (OATA WT [2]): 208%

O=C1CCCc2ccccc21 [Ketone 1h]
Reaction rate OATA (OATA WT [6]): did not react

COCC(C)=O [methoxyacetone]
Relative activity to acetophenone, OATA WT (OATA WT [2]): 571%

CC(C)N [Isopropylamine]
Relative reactivity, OATA (OATA WT [3]): 20% | kcat, OATA (OATA): 9700, 9300 ×10^−3 s^−1

CC(C)CC(C)N (stereo not shown) [1,3-Dimethylbutylamine]
Relative reactivity, OATA (OATA WT [3]): 3%

Cc1ccc([C@H](C)N)cc1 [(S)-α,4-dimethylbenzylamine]
Relative reactivity, OATA (OATA WT [3]): 86%

(S)-sec-butylamine
Relative reactivity, OATA (OATA WT [3]): 29%

CCC(=O)C(=O)O [2-oxobutanoic acid]
Relative activity, OATA WT (OATA WT [5]): 17.2%

CC(N)CCc1ccccc1 (stereo not shown) [1-Methyl-3-phenylpropylamine]
Relative reactivity, OATA (OATA WT [3]): 73%

CC(C)C(N)c1ccccc1 (racemic) [2-Methyl-1-phenylpropan-1-amine]
Relative reactivity, OATA (OATA WT [3]): 0.1%

N[C@H]1CCc2ccccc21 [(S)-1-aminoindan]
Relative reactivity, OATA (OATA WT [3]): 9%

CCCCC(=O)C(=O)O [2-oxohexanoic acid]
Relative activity, OATA WT (OATA WT [5]): 1%

CC(=O)CC(C)C [Ketone 1n, 4-methyl-2-pentanone]
Relative activity to acetophenone, OATA WT (OATA WT [2]): 21%

COc1ccc([C@H](C)N)cc1 [(S)-4-methoxy-α-methylbenzylamine]
Relative reactivity, OATA (OATA WT [3]): 116%

COCC(C)N (stereo not shown) [1-Methoxy-2-propylamine]
Relative reactivity, OATA (OATA WT [3]): 29%

NCc1ccccc1 [Benzylamine]
Relative reactivity, OATA (OATA WT [3]): 274%

CCC[C@H](N)c1ccccc1 [(S)-α-propylbenzylamine]
Relative reactivity, OATA (OATA WT [3]): 0.2%

CC(N)CO (racemic) [DL-Alaninol]
Relative reactivity, OATA (OATA WT [3]): 16%

CC[C@H](N)c1ccccc1 [(S)-α-ethylbenzylamine]
Relative reactivity, OATA (OATA WT [3]): 2%

O=C1CCc2ccccc21 [Ketone 1g]
Reaction rate OATA (OATA WT [6]): did not react

CC(C)(C)C(N)c1ccccc1 (stereo not shown) [2,2-Dimethyl-1-phenylpropan-1-amine]
Relative reactivity, OATA (OATA WT [3]): 0.1%

CCCC(C)=O [Ketone 1j, 2-pentanone]
Relative activity to acetophenone, OATA WT (OATA WT [2]): 83%

1-acetonaphthone [Ketone 1i]
Conversion (%) OATA (OATA WT [4]): 13% | Relative activity to acetophenone, OATA WT (OATA WT [2]): 43%

Cc1cccc(C)c1OCC(C)N (stereo not shown) [Mexiletine, reference compound]
Relative reactivity, OATA (OATA WT [3]): 27%

CC(N)c1ccc(F)cc1 (stereo not drawn) [4-Fluoro-α-methylbenzylamine]
Relative reactivity, OATA (OATA WT [3]): 31%

CCC(=O)c1ccccc1 [Ketone 1b, propiophenone]
Relative activity to acetophenone, OATA W58L (OATA W58L): 2% | Relative activity, OATA L57A/W58A (OATA L57A/W58A): 387% | Relative activity to acetophenone, OATA W58A (OATA W58A [7]): 14% | Relative activity, OATA WT (OATA WT [1]): 17% | Relative activity to acetophenone, OATA W58I (OATA W58I): 14% | Relative activity, OATA L57A/W58A/V154A (OATA L57A/W58A/V154A): 821% | Relative activity to acetophenone, OATA W58V (OATA W58V): 16% | Relative activity to acetophenone, OATA W58M (OATA W58M): 17% | Relative activity to acetophenone, OATA WT (OATA WT [2]): 1% | Relative activity, OATA W58A (OATA W58A [8]): 259% | Relative activity, OATA L57A (OATA L57A): 49%

C[C@H](N)c1ccccc1 [(S)-α-methylbenzylamine]
Relative activity, OATA WT (OATA WT [9]): 100% | Relative reactivity, OATA (OATA WT [3]): 100% | kcat, OATA (OATA): 24000, 20000 ×10^−3 s^−1

CC(=O)CCc1ccccc1 [Ketone 1f, benzylacetone]
Conversion (%) OATA (OATA WT [4]): 26% | Relative activity to acetophenone, OATA WT (OATA WT [2]): 536%

CCCC(=O)C(=O)O [2-oxopentanoic acid]
Relative activity, OATA WT (OATA WT [5]): 0.6%

CCCC(C)N (stereo not shown) [2-Aminopentane]
Relative reactivity, OATA (OATA WT [3]): 13%

COc1ccc(C(C)=O)cc1 [Ketone 1e, 4-methoxyacetophenone]
Relative activity to acetophenone, OATA WT (OATA WT [2]): 29%

CCCCC(C)=O [Ketone 1k, 2-hexanone]
Conversion (%) OATA (OATA WT [4]): 14% | Relative activity to acetophenone, OATA WT (OATA WT [2]): 151%

CC(=O)C(=O)O [pyruvate, pyruvic acid]
Relative activity, OATA WT (OATA WT [5]): 100%

CC(=O)c1ccccc1 [Ketone 1a, acetophenone]
activity relative to pyruvate [10]: 0.03% | Relative activity, OATA WT (OATA WT [1]): 100% | Conversion (ARTAmut): 19% | Relative activity to acetophenone, OATA WT (OATA WT [2]): 100% | kcat, OATA (OATA): 9.7, 540 ×10^−3 s^−1

CC(=O)CO [hydroxyacetone]
Relative activity to acetophenone, OATA WT (OATA WT [2]): 364%

CCCCCC[C@H](C)N [(S)-2-aminooctane]
Relative reactivity, OATA (OATA WT [3]): 146%

CCC(C)=O [Ketone 2-butanone, 2-butanone]
Relative activity to acetophenone, OATA WT (OATA WT [2]): 317%
